Values quoted from earlier work, collected in US9636287B2, “Primecoat compositions for proteinaceous substrates and methods of priming proteinaceous substrates therewith” (Mad River Science, priority 2012, dated 2017).

System: EpiDerm Skin Model (normal, human-derived epidermal keratinocytes, NHEK)
Conditions: MatTek Corporation general guideline groupings, example materials

CCCCCCCCCCCCOS(=O)(=O)[O-].[Na+] [1% Sodium Dodecyl Sulfate, Sodium Dodecyl Sulfate]
ET-50 (hrs): 0.5-4^ hrs
Expected In vivo Irritancy: Moderate

O=[N+]([O-])O [Conc. Nitric Acid, Nitric Acid]
ET-50: <0.5 h
Expected In vivo Irritancy: Severe, probably corrosive

Triton X-100 [1% Triton X-100]
ET-50: 4 to 12 h
Expected In vivo Irritancy: Moderate to Mild
